{"source": "paper PMC10783034", "about": "“Pharmacokinetic and pharmacodynamic evaluation of the atypical tetracyclines chelocardin and amidochelocardin in murine infection models” (Microbiology Spectrum, 2023)", "key": {"ESKAPE pathogens": {"system": "ESKAPE pathogens", "assay": "MIC determination against a variety of ESKAPE pathogens", "assay_type": "cell-based", "details": "against A. baumannii, P. aeruginosa, and E. aerogenes", "method": "(§1) The assay was conducted as described previously ([54]) with the following modifications. The MIC was tested against the K. pneumoniae strain ATCC 43816 in an MHB (not cation-adjusted) medium. CHD and CDCHD were tested in concentrations ranging from 0.078 to 10 µg/mL. Moreover, the MIC was determined for the following strains: K. pneumoniae DSM-30104, E. faecium DSM-20477, S. aureus DSM-346, P. aeruginosa DSM-11128, A. baumannii DSM-30008, E. aerogenes DSM-30053, E. coli ATCC 25922, and E. coli C175-94. All strains were grown in MHB medium, except for E. faecium, which was grown in TSB. CHD, epi-CDH, and CDCHD were tested in concentrations ranging from 0.125 to 64 µg/mL as described previously ([19])."}, "K. pneumoniae ATCC 43816 [1]": {"system": "K. pneumoniae ATCC 43816", "assay": "MIC determination", "assay_type": "cell-based", "details": "MHB (not cation-adjusted) medium", "method": "as §1"}, "E. coli ATCC 25922": {"system": "E. coli ATCC 25922", "assay": "Neutropenic thigh infection model in CD-1 mice", "assay_type": "in vivo", "details": "for bacterial burden in the thigh relative to stasis (pre-treatment group): 50 mg/kg IV QD; for tolerability: doses up to 50 mg/kg IV in the neutropenic thigh infection model", "method": "(§2) The inoculum for K. pneumoniae ATCC 43816 was prepared freshly as described previously to yield 1 × 10^4 cfu/mL ([56]). The inoculum of the E. coli ATCC 25922 was diluted from a frozen stock to 1.4 × 10^6 cfu/ml. N = 6 animals per group were used for both tested strains. N = 4 mice were used in the pre-treatment group in the neutropenic thigh infection model with E. coli ATCC 25922. Mice were rendered neutropenic by administration of 150 mg/kg and 100 mg/kg cyclophosphamide intraperitoneally on days −4 and −1, respectively. On the day of infection (day 0), mice received 30 µL of the inoculum of K. pneumoniae ATCC 43816 into each lateral thigh under isoflurane anesthesia, corresponding to 6 × 10^2 cfu/mouse. In the model with E. coli, mice received 50 µL of the inoculum of E. coli into each lateral thigh under isoflurane anesthesia, corresponding to 1.4 × 10^5 cfu/mouse. Whilst still under anesthesia, mice were administered a dose of Buprenorphine (0.03 mg/kg) subcutaneously for pain relief. 24 hours after infection, mice were euthanized by slowly introducing CO2 and cardiac puncture to remove blood from the heart immediately after death. Kidneys and thighs were aseptically removed. 24 hours after infection, the clinical score of every individual animal was assessed. Clinical scoring comprises the assessment of different parameters such as spontaneous behavior, posture, appearance, and provoked behavior. Each parameter was assessed with a score of 0 to 3 (ascending severity from 0 to 3). The humane endpoint was reached when the clinical score of a single parameter was 3 or if the total clinical score was higher than 8. Whole blood was collected into Eppendorf tubes coated with 0.5 M EDTA. Organs were homogenized in 0.9% NaCl solution. Organs and blood were plated onto agar plates in duplicates in serial dilutions and incubated at 37°C for 24 hours. 25 µL per dilution of the homogenized organ was spotted onto agar plates. In addition, 1 mL of homogenized organ is streaked onto an agar plate in technical duplicates. If no single colony is observed then, this would result in 0 cfu/mL. Thus, the threshold of detection is 0 log10 cfu/g. The groups used in the different neutropenic thigh infection models are found in Tables S4 through S7. In brief, levofloxacin with 3.3 mg/kg TID IP was used as a positive control antibiotic for the K. pneumoniae model, whereas ciprofloxacin with 20 mg/kg BID IV was used for the E. coli model, respectively. The rationale for TID dosing was based on the PK/PD index of fAUC/MIC for fluoroquinolones ([57] [–] [59]). […] Moreover, CHD and CDCHD were administered at 10 mg/kg SC QID (t = 1,3,5,7 hours), 15 mg/kg SC TID (t = 1,4,7 hours), and 50 mg/kg SC QD (t = 1 hour) (Tables S5 and S6). In the E. coli neutropenic thigh infection model, CHD and CDCHD, respectively, were administered at 50 mg/kg IV QD (t = 1 hour) and 15 mg/kg IV BID (t = 1 and 6 hours) (Table S7).\n(§3) For the neutropenic thigh infection model with E. coli ATCC 25922, the thighs were regarded as two independent infection sites throughout the experiment. For statistical analysis, individual thighs (left and right) were treated as separate samples although these were not completely independent values. For the neutropenic thigh infection model with K. pneumoniae ATCC 43816, the individual thighs (left and right) were treated as one sample. For the efficacy models, the non-parametric Kruskal-Wallis test was used with GraphPad Prism 9.4.1. For the ascending urinary tract infection model, an ordinary one-way ANOVA with Dunnett’s multiple comparison test was used with GraphPad Prism 9.4.1."}, "K. pneumoniae ATCC 43816 [2]": {"system": "K. pneumoniae ATCC 43816", "assay": "Neutropenic thigh infection model in CD-1 mice", "assay_type": "in vivo", "method": "as §2, §3"}, "[3]": {"details": "24 hours after infection, CHD/CDCHD 10 mg/kg SC QD or BID, levofloxacin 3.3 mg/kg IP TID, vs vehicle"}, "[4]": {"details": "higher-dose studies: 10 mg/kg SC QID, 15 mg/kg SC TID, 50 mg/kg SC QD, levofloxacin 3.3 mg/kg IP TID"}}, "data": [{"smiles": "CC(=O)C1=C(O)[C@H](N)[C@@H]2Cc3c(c(O)c4c(O)c(C)ccc4c3C)C(=O)[C@]2(O)C1=O", "note": "[CHD, chelocardin]", "values": [{"measurement": "activity (in words)", "setting": "ESKAPE pathogens", "result": "inactive"}, {"measurement": "MIC", "setting": "K. pneumoniae ATCC 43816 [1]", "result": 5, "unit": "µg/mL"}, {"measurement": "bacterial burden in kidney", "setting": "E. coli ATCC 25922; 15 mg/kg IV BID", "result": "moderate reduction"}, {"measurement": "bacterial burden in the thigh", "setting": "E. coli ATCC 25922; 15 mg/kg IV BID", "result": "reduced bacterial burden in the thigh"}, {"measurement": "kill in the thigh compared to the pre-treatment group", "setting": "E. coli ATCC 25922; 50 mg/kg IV", "result": "~1", "unit": "log10-unit"}, {"measurement": "reduction in the thigh compared to the vehicle", "setting": "E. coli ATCC 25922; 50 mg/kg IV", "result": 5, "unit": "log10-unit"}, {"measurement": "bacterial burden in the thigh relative to stasis (pre-treatment group)", "setting": "E. coli ATCC 25922", "result": "reduction of bacterial burden to levels below stasis"}, {"measurement": "tolerability", "setting": "E. coli ATCC 25922", "result": "well tolerated"}, {"measurement": "bacterial burden in the thigh", "setting": "K. pneumoniae ATCC 43816 [2]; 10 mg/kg SC QID, 15 mg/kg SC TID, 50 mg/kg SC QD (all three dose levels)", "result": "no effect was observed in the thigh"}, {"measurement": "bacterial burden in the kidney", "setting": "K. pneumoniae ATCC 43816 [2]; 50 mg/kg SC QD", "result": "a slight reduction of bacterial burden"}, {"measurement": "bacterial burden in blood", "setting": "K. pneumoniae ATCC 43816 [2]; 50 mg/kg SC QD, similar range as levofloxacin, statistical significance missed", "result": "the bacterial burden was reduced"}, {"measurement": "bacterial burden in blood", "setting": "K. pneumoniae ATCC 43816 [2]; [3]", "result": "The same was found in blood"}, {"measurement": "bacterial burden in the kidney", "setting": "K. pneumoniae ATCC 43816 [2]; [4]", "result": "no statistically significant effect was observed"}]}, {"smiles": "Cc1ccc2c(C)c3c(c(O)c2c1O)C(=O)C1(O)C(=O)C(C(N)=O)=C(O)C(N)C1C3", "note": "(stereo not shown) [CDCHD, 2-carboxamido-2-deacetyl-chelocardin]", "values": [{"measurement": "bacterial burden in the thigh relative to stasis (pre-treatment group)", "setting": "E. coli ATCC 25922", "result": "did not reduce bacterial load back to stasis"}, {"measurement": "bacterial burden in kidney", "setting": "E. coli ATCC 25922; both IV groups (15 mg/kg IV BID and 50 mg/kg IV QD)", "result": "pronounced reduction of bacterial burden"}, {"measurement": "tolerability", "setting": "E. coli ATCC 25922", "result": "well tolerated"}, {"measurement": "bacterial burden in the kidney", "setting": "K. pneumoniae ATCC 43816 [2]; 10 mg/kg SC BID, vs vehicle control, similar to levofloxacin, not statistically significant", "result": "a reduction of bacterial burden was observed in the kidney"}, {"measurement": "bacterial burden in blood", "setting": "K. pneumoniae ATCC 43816 [2]; 10 mg/kg SC QID, 15 mg/kg SC TID, 50 mg/kg SC QD (all three groups)", "result": "a reduction of bacterial burden was observed"}, {"measurement": "bacterial burden in the thigh", "setting": "K. pneumoniae ATCC 43816 [2]; 50 mg/kg SC QD", "result": "a statistically significant reduction of bacterial burden in the thigh was observed"}, {"measurement": "reduction of bacterial burden in the thigh", "setting": "K. pneumoniae ATCC 43816 [2]; 50 mg/kg SC QD", "result": "approximately one"}, {"measurement": "bacterial burden in blood", "setting": "K. pneumoniae ATCC 43816 [2]; [3]", "result": "The same was found in blood"}, {"measurement": "bacterial burden in the kidney", "setting": "K. pneumoniae ATCC 43816 [2]; [4]", "result": "reduced bacterial burden in the kidney to apparent sterilization"}]}]}
